Reference: patent US20250050053A1, “METHOD OF TREATMENT AND SELECTION OF PATIENTS BENEFITING FROM AGOMELATINE BASED ON EEG MEASUREMENTS” (Alto Neuroscience, Inc., priority 2023, published 2025)

What was measured:
[1] = system: patients with major depressive disorder; assay: Open-label trials of adjunctive agomelatine 25 mg at bedtime; baseline EEG machine learning models predicting change in MADRS; assay type: in vivo, human
Procedure: The inventors conducted two parallel open-label clinical trials of agomelatine at 25 mg once at bedtime in patients with major depressive disorder (NCT05118750 and NCT05157945, whose data was pooled in these analyses). […] Patients were evaluated over the course of eight weeks of treatment.
EEG data were collected at rest (encompassing both eyes open and eyes closed conditions) prior to treatment using a 19-channel EEG system covering the conventional 10-20 electrode locations. A total of 107 patients with moderate to severe depression (MADRS 20 and PHQ-9≥10) had EEG data (107 with eyes open (REO) EEG, 105 with eyes closed (REC) EEG). Quality control assessments were conducted, yielding 105 REO patient datasets and 103 REC patient datasets. […] The training dataset consisted of 60 REO patient datasets and 60 REC patient datasets. The holdout set consisted of […] and […].
In order to compile these individual signals into a single EEG composite entropy model for prediction of treatment outcome, the inventors conducted 10-fold cross-validated machine learning using elastic net regularization against an outcome of high versus low response to agomelatine. Cross-validation divides the training dataset iteratively into 9/10 for training the machine learning model and 1/10 for evaluating the predictive utility of the model (i.e., participants left out of the training itself, though part of the aforementioned training dataset). The training sample is then divided in this way until each participant has been left out of the training subset.
The Cohen's d effect sizes at these weeks are all >0.4, indicating a substantial effect size for the prediction, especially considering that the meta-analytically calculated all-comer (i.e., unselected depression patients) effect size for the difference in treatment response to agomelatine (as monotherapy) versus placebo is d=0.26 (Cipriani et al., Lancet., 2018, 391(10128):1357-1366, PMID: 29477251).
In addition to sample entropy, the inventors developed similar machine learning models to test the predictive utility of a range of other EEG complexity measures, as well as other common EEG indices. […] Thus, certain complexity measures appear to carry consistent and strong prediction of agomelatine outcome.

[2] = system: unselected depression patients; conditions: Cipriani et al. 2018; cited from earlier work

COc1ccc2cccc(CCNC(C)=O)c2c1 [agomelatine, N-[2-(7-methoxynaphthalen-1-yl)ethyl]acetamide]
Cohen's d effect size, predicted responders vs non-responders, change in MADRS ([1]; EEG sample entropy machine learning model, cross-validation left-out data of training dataset, all weeks): > 0.4 | Cohen's d, prediction of agomelatine outcome ([1]; REC, Approximate Entropy, lower gamma, Week 1): 0.23 | Cohen's d, prediction of agomelatine outcome ([1]; REC, Approximate Entropy, lower gamma, Week 2): 0.29 | Cohen's d, prediction of agomelatine outcome ([1]; REC, Approximate Entropy, lower gamma, Week 4): 0.46 | Cohen's d, prediction of agomelatine outcome ([1]; REC, Detrended Fluctuation Analysis, lower beta, Week 1): 0.49 | Cohen's d, prediction of agomelatine outcome ([1]; REC, Detrended Fluctuation Analysis, lower beta, Week 2): 0.44 | Cohen's d, prediction of agomelatine outcome ([1]; REC, Detrended Fluctuation Analysis, lower beta, Week 4): 0.41 | Cohen's d, prediction of agomelatine outcome ([1]; REC, Detrended Fluctuation Analysis, upper beta, Week 1): 0.19 | Cohen's d, prediction of agomelatine outcome ([1]; REC, Detrended Fluctuation Analysis, upper beta, Week 2): 0.20 | Cohen's d, prediction of agomelatine outcome ([1]; REC, Detrended Fluctuation Analysis, upper beta, Week 4): 0.25 | Cohen's d, prediction of agomelatine outcome ([1]; REC, Higuchi Fractal Dimension, lower beta, Week 1): 0.44 | Cohen's d, prediction of agomelatine outcome ([1]; REC, Higuchi Fractal Dimension, lower beta, Week 2): 0.36 | Cohen's d, prediction of agomelatine outcome ([1]; REC, Higuchi Fractal Dimension, lower beta, Week 4): 0.28 | Cohen's d, prediction of agomelatine outcome ([1]; REC, Higuchi Fractal Dimension, lower gamma, Week 1): 0.64 | Cohen's d, prediction of agomelatine outcome ([1]; REC, Higuchi Fractal Dimension, lower gamma, Week 2): 0.58 | Cohen's d, prediction of agomelatine outcome ([1]; REC, Higuchi Fractal Dimension, lower gamma, Week 4): 0.57 | Cohen's d, prediction of agomelatine outcome ([1]; REC, Higuchi Fractal Dimension, upper beta, Week 1): −0.29 | Cohen's d, prediction of agomelatine outcome ([1]; REC, Higuchi Fractal Dimension, upper beta, Week 2): −0.20 | Cohen's d, prediction of agomelatine outcome ([1]; REC, Higuchi Fractal Dimension, upper beta, Week 4): −0.05 | Cohen's d, prediction of agomelatine outcome ([1]; REC, Higuchi Fractal Dimension, upper gamma, Week 1): 0.16 | Cohen's d, prediction of agomelatine outcome ([1]; REC, Higuchi Fractal Dimension, upper gamma, Week 2): 0.16 | Cohen's d, prediction of agomelatine outcome ([1]; REC, Higuchi Fractal Dimension, upper gamma, Week 4): 0.21 | Cohen's d, prediction of agomelatine outcome ([1]; REC, Katz Fractal Dimension, lower beta, Week 1): 0.47 | Cohen's d, prediction of agomelatine outcome ([1]; REC, Katz Fractal Dimension, lower beta, Week 2): 0.42 | Cohen's d, prediction of agomelatine outcome ([1]; REC, Katz Fractal Dimension, lower beta, Week 4): 0.37 | Cohen's d, prediction of agomelatine outcome ([1]; REC, Katz Fractal Dimension, lower gamma, Week 1): 0.25 | Cohen's d, prediction of agomelatine outcome ([1]; REC, Katz Fractal Dimension, lower gamma, Week 2): 0.23 | Cohen's d, prediction of agomelatine outcome ([1]; REC, Katz Fractal Dimension, lower gamma, Week 4): 0.23 | Cohen's d, prediction of agomelatine outcome ([1]; REC, Katz Fractal Dimension, upper beta, Week 1): 0.42 | Cohen's d, prediction of agomelatine outcome ([1]; REC, Katz Fractal Dimension, upper beta, Week 2): 0.40 | Cohen's d, prediction of agomelatine outcome ([1]; REC, Katz Fractal Dimension, upper beta, Week 4): 0.42 | Cohen's d, prediction of agomelatine outcome ([1]; REC, Katz Fractal Dimension, upper gamma, Week 1): 0.04 | Cohen's d, prediction of agomelatine outcome ([1]; REC, Katz Fractal Dimension, upper gamma, Week 2): 0.10 | Cohen's d, prediction of agomelatine outcome ([1]; REC, Katz Fractal Dimension, upper gamma, Week 4): 0.23 | Cohen's d, prediction of agomelatine outcome ([1]; REC, Largest Lyapunov Exponent, upper alpha, Week 1): 0.10 | Cohen's d, prediction of agomelatine outcome ([1]; REC, Largest Lyapunov Exponent, upper alpha, Week 2): 0.12 | Cohen's d, prediction of agomelatine outcome ([1]; REC, Largest Lyapunov Exponent, upper alpha, Week 4): 0.18 | Cohen's d, prediction of agomelatine outcome ([1]; REC, Largest Lyapunov Exponent, upper gamma, Week 1): −0.02 | Cohen's d, prediction of agomelatine outcome ([1]; REC, Largest Lyapunov Exponent, upper gamma, Week 2): 0.08 | Cohen's d, prediction of agomelatine outcome ([1]; REC, Largest Lyapunov Exponent, upper gamma, Week 4): 0.29 | Cohen's d, prediction of agomelatine outcome ([1]; REC, Lempel-Ziv Complexity, lower gamma, Week 1): −0.06 | Cohen's d, prediction of agomelatine outcome ([1]; REC, Lempel-Ziv Complexity, lower gamma, Week 2): 0.01 | Cohen's d, prediction of agomelatine outcome ([1]; REC, Lempel-Ziv Complexity, lower gamma, Week 4): 0.15 | Cohen's d, prediction of agomelatine outcome ([1]; REC, Lempel-Ziv Complexity, upper alpha, Week 1): 0.21 | Cohen's d, prediction of agomelatine outcome ([1]; REC, Lempel-Ziv Complexity, upper alpha, Week 2): 0.17 | Cohen's d, prediction of agomelatine outcome ([1]; REC, Lempel-Ziv Complexity, upper alpha, Week 4): 0.13 | Cohen's d, prediction of agomelatine outcome ([1]; REC, Modified Multiscale Entropy, lower alpha, Week 1): 0.08 | Cohen's d, prediction of agomelatine outcome ([1]; REC, Modified Multiscale Entropy, lower alpha, Week 2): 0.11 | Cohen's d, prediction of agomelatine outcome ([1]; REC, Modified Multiscale Entropy, lower alpha, Week 4): 0.19 | Cohen's d, prediction of agomelatine outcome ([1]; REC, Modified Multiscale Entropy, lower gamma, Week 1): −0.09 | Cohen's d, prediction of agomelatine outcome ([1]; REC, Modified Multiscale Entropy, lower gamma, Week 2): 0.01 | Cohen's d, prediction of agomelatine outcome ([1]; REC, Modified Multiscale Entropy, lower gamma, Week 4): 0.21 | Cohen's d, prediction of agomelatine outcome ([1]; REC, Modified Multiscale Entropy, upper alpha, Week 1): 0.19 | Cohen's d, prediction of agomelatine outcome ([1]; REC, Modified Multiscale Entropy, upper alpha, Week 2): 0.25 | Cohen's d, prediction of agomelatine outcome ([1]; REC, Modified Multiscale Entropy, upper alpha, Week 4): 0.39 | Cohen's d, prediction of agomelatine outcome ([1]; REC, Multiscale Entropy, upper alpha, Week 1): 0.05 | Cohen's d, prediction of agomelatine outcome ([1]; REO, Approximate Entropy, lower gamma, Week 1): −0.15 | Cohen's d, prediction of agomelatine outcome ([1]; REO, Approximate Entropy, lower gamma, Week 2): −0.05 | Cohen's d, prediction of agomelatine outcome ([1]; REO, Approximate Entropy, lower gamma, Week 4): 0.09 | Cohen's d, prediction of agomelatine outcome ([1]; REO, Detrended Fluctuation Analysis, upper gamma, Week 1): 0.37 | Cohen's d, prediction of agomelatine outcome ([1]; REO, Detrended Fluctuation Analysis, upper gamma, Week 2): 0.33 | Cohen's d, prediction of agomelatine outcome ([1]; REO, Detrended Fluctuation Analysis, upper gamma, Week 4): 0.32 | Cohen's d, prediction of agomelatine outcome ([1]; REO, Higuchi Fractal Dimension, delta, Week 1): −0.15 | Cohen's d, prediction of agomelatine outcome ([1]; REO, Higuchi Fractal Dimension, delta, Week 2): −0.05 | Cohen's d, prediction of agomelatine outcome ([1]; REO, Higuchi Fractal Dimension, delta, Week 4): 0.12 | Cohen's d, prediction of agomelatine outcome ([1]; REO, Higuchi Fractal Dimension, lower beta, Week 1): 0.03 | Cohen's d, prediction of agomelatine outcome ([1]; REO, Higuchi Fractal Dimension, lower beta, Week 2): 0.03 | Cohen's d, prediction of agomelatine outcome ([1]; REO, Higuchi Fractal Dimension, lower beta, Week 4): 0.05 | Cohen's d, prediction of agomelatine outcome ([1]; REO, Higuchi Fractal Dimension, upper gamma, Week 1): 0.04 | Cohen's d, prediction of agomelatine outcome ([1]; REO, Higuchi Fractal Dimension, upper gamma, Week 2): 0.06 | Cohen's d, prediction of agomelatine outcome ([1]; REO, Higuchi Fractal Dimension, upper gamma, Week 4): 0.11 | Cohen's d, prediction of agomelatine outcome ([1]; REO, Katz Fractal Dimension, delta, Week 1): 0.04 | Cohen's d, prediction of agomelatine outcome ([1]; REO, Katz Fractal Dimension, delta, Week 2): 0.07 | Cohen's d, prediction of agomelatine outcome ([1]; REO, Katz Fractal Dimension, delta, Week 4): 0.13 | Cohen's d, prediction of agomelatine outcome ([1]; REO, Katz Fractal Dimension, lower beta, Week 1): 0.28 | Cohen's d, prediction of agomelatine outcome ([1]; REO, Katz Fractal Dimension, lower beta, Week 2): 0.18 | Cohen's d, prediction of agomelatine outcome ([1]; REO, Katz Fractal Dimension, lower beta, Week 4): 0.06 | Cohen's d, prediction of agomelatine outcome ([1]; REO, Katz Fractal Dimension, upper beta, Week 1): 0.24 | Cohen's d, prediction of agomelatine outcome ([1]; REO, Katz Fractal Dimension, upper beta, Week 2): 0.24 | Cohen's d, prediction of agomelatine outcome ([1]; REO, Katz Fractal Dimension, upper beta, Week 4): 0.29 | Cohen's d, prediction of agomelatine outcome ([1]; REO, Largest Lyapunov Exponent, upper alpha, Week 1): 0.03 | Cohen's d, prediction of agomelatine outcome ([1]; REO, Largest Lyapunov Exponent, upper alpha, Week 2): 0.08 | Cohen's d, prediction of agomelatine outcome ([1]; REO, Largest Lyapunov Exponent, upper alpha, Week 4): 0.17 | Cohen's d, prediction of agomelatine outcome ([1]; REO, Largest Lyapunov Exponent, upper gamma, Week 1): −0.24 | Cohen's d, prediction of agomelatine outcome ([1]; REO, Largest Lyapunov Exponent, upper gamma, Week 2): −0.11 | Cohen's d, prediction of agomelatine outcome ([1]; REO, Largest Lyapunov Exponent, upper gamma, Week 4): 0.08 | Cohen's d, prediction of agomelatine outcome ([1]; REO, Lempel-Ziv Complexity, lower gamma, Week 1): −0.24 | Cohen's d, prediction of agomelatine outcome ([1]; REO, Lempel-Ziv Complexity, lower gamma, Week 2): −0.13 | Cohen's d, prediction of agomelatine outcome ([1]; REO, Lempel-Ziv Complexity, lower gamma, Week 4): 0.02 | Cohen's d, prediction of agomelatine outcome ([1]; REO, Lempel-Ziv Complexity, theta, Week 1): 0.13 | Cohen's d, prediction of agomelatine outcome ([1]; REO, Lempel-Ziv Complexity, theta, Week 2): 0.14 | Cohen's d, prediction of agomelatine outcome ([1]; REO, Lempel-Ziv Complexity, theta, Week 4): 0.17 | Cohen's d, prediction of agomelatine outcome ([1]; REO, Lempel-Ziv Complexity, upper beta, Week 1): 0.19 | Cohen's d, prediction of agomelatine outcome ([1]; REO, Lempel-Ziv Complexity, upper beta, Week 2): 0.21 | Cohen's d, prediction of agomelatine outcome ([1]; REO, Lempel-Ziv Complexity, upper beta, Week 4): 0.30 | Cohen's d, prediction of agomelatine outcome ([1]; REO, Modified Multiscale Entropy, upper beta, Week 1): 0.08 | Cohen's d, prediction of agomelatine outcome ([1]; REO, Modified Multiscale Entropy, upper beta, Week 2): 0.15 | Cohen's d, prediction of agomelatine outcome ([1]; REO, Modified Multiscale Entropy, upper beta, Week 4): 0.31 | Cohen's d, prediction of agomelatine outcome ([1]; REO, Multiscale Entropy, lower gamma, Week 1): −0.41 | Cohen's d, prediction of agomelatine outcome ([1]; REO, Multiscale Entropy, lower gamma, Week 2): −0.21 | Cohen's d, prediction of agomelatine outcome ([1]; REO, Multiscale Entropy, lower gamma, Week 4): 0.05 | MADRS change, high vs low Pz low-gamma sample entropy ([1]; z≥0.27, full study sample, all weeks): strong and statistically significant prediction of treatment outcome across all weeks | all-comer effect size d, treatment response to agomelatine (as monotherapy) versus placebo [2]: 0.26
